US9695191B2, “Conformationally constrained, fully synthetic macrocyclic compounds” (POLYPHOR AG, priority 2009, dated 2017)
Where two headings read alike, the source gives them in different places.

Assays:
[1] = target: T1, 5-hydroxytryptamine 2B (5-HT2B) receptor (Homo sapiens, UniProt P41595); assay: Ca2+ assay (FLIPR), 5-hydroxytryptamine 2B (5-HT2B) receptor, agonist mode (percentage activation); format: cell-based
T1 construct: expressed in transfected cells; host or cells: Ca2+ optimized hematopoietic cell lines (rat)
Method: Dose dependent agonist and antagonist activities were determined. Percentage activation and percentage inhibition values were determined.
Percentage activation was determined upon initial addition of the sample compounds followed by 10 minutes incubation at 25° C. Following compound incubation, reference agonists were added at EC80 to determine percentage inhibition.
All handling of ligands were done to ensure proper control throughout the experiments.
HBSS was supplemented with 20 mM HEPES (4-(2-hydroxyethyl)-piperazin-1-ethansulfonic acid) and 2.5 mM Probenecid (Sigma P8761).
GPCR assays were performed using Ca^2+ optimized hematopoietic cell lines (rat) with cultures never exceeding 90% confluency. […] After seeding, the assay plates were incubated for forty-five (45) minutes at room temperature. After room temperature incubation, the assay plates were incubated at 37° C. 5% CO2 for 24 hours prior to assaying.
All GPCR assays were performed using Fluo-8 Ca^2+ dye. Ca^2+ dye was prepared at 1× dye concentration in GPCR assay buffer. […] The plates were incubated for 90 minutes at 30° C. 5% CO2 prior to FLIPR assay.
Compound plates were prepared to add 50 μL/well during the agonist assay mode. During the FLIPR assay, 50 μL/well from the compound plate was diluted 3-fold into the existing 100 μL/well from the dye loading step. Therefore all compounds were prepared as 3× the final concentration desired in the assay.
After completion of the first single addition assay run, assay plate was removed from the FLIPR Tetra and placed at 25° C. for seven (7) minutes before antagonist assay.
From the FLIPR data, with negative control correction enabled, the maximum statistic for each well was exported and percentage activation relative to Emax control was calculated.

[2] = Metabolic stability, human microsomes; format: in vitro ADME; details: 37° C.; for Metabolic Stability 60 min hum: % of the initial 0 minutes value at 60 min, 10 μM
Method: (§1) Microsomes from a human 50 donor mixed gender pool and 1:1 mixtures of microsomes from CD-1 mouse single-gender pools are purchased from Celsis (Belgium). The enzymatic reaction is performed in a buffer containing an NADPH regeneration system and microsomes with the following end concentrations: 100 mM potassium phosphate buffer (all from Sigma), 1 mg/mL glucose-6-phosphate, 1 mg/mL β-nicotinamide adenine dinucleotide phosphate (NADP), 0.65 mg/mL magnesium chloride, 0.8 units/mL of glucose-6-phosphate dehydrogenase (prediluted with 5 mM citrate buffer), 10 μM compound and 1 mg/ml microsomal protein. Compounds are incubated at 37° C. in duplicates and samples are taken after 0, 20 and 60 minutes. After acetonitrile precipitation (2 volumes) and HPLC/MS/MS analysis metabolic turnover is expressed in % of the initial 0 minutes value and half life T½ (min) is calculated. Verapamil for human and propranolol for mouse are used as reference and are assayed with every experimental set. • F. P. Guengerich, Analysis and Characterization of Enzymes; in: Principles and Methods of Toxicology; A. W. Hayes (Ed.) Raven Press: New York, 1989, 777-813. • R. Singh et al., In vitro metabolism of a potent HIV-protease inhibitor (141W94) using rat, monkey and human liver S9, Rapid Commun. Mass Spectrom. 1996, 10, 1019-1026. 5. Results

[3] = Metabolic stability, CD-1 mouse microsomes; format: in vitro ADME; details: 37° C.; for Metabolic Stability 60 min mouse: % of the initial 0 minutes value at 60 min, 10 μM
Method: as §1

[4] = human, 10 μM
Method: (§2) Example compounds were dissolved in DMSO/H2O 90:10 to a final concentration of 10 mM for plasma stability determination and metabolic stability determination.
(§3) Human plasma (3-5 donors, Blutspendedienst SRK, Basel) and CD-1 mouse plasma (mixed gender pool>50 animals, Innovative Research, CA, USA) are both sodium citrate stabilized. The assay is performed in triplicates at 10 μM compound concentration and 37° C. Samples are taken at 0, 15, 60, and 240 minutes and stopped by precipitation with 2 volumes of acetonitrile. The supernatant is collected, evaporated and reconstituted in a 5% acetonitrile solution to be analyzed by HPLC/MS/MS. The resulting peak area counts are expressed in percent of the 0 value and used to determine the endpoint stability in % and the half life T½ in minutes. In order to monitor assay integrity the degradation of propantheline is assayed with every experimental set

[5] = both, CD-1, mouse, 10 μM
Method: as §2, §3

[6] = Plasma stability, human plasma; details: endpoint stability in % of the 0 value at 240 min, 10 μM, 37° C.
Method: as §2, §3

[7] = Plasma stability, CD-1 mouse plasma; details: endpoint stability in % of the 0 value at 240 min, 10 μM, 37° C.
Method: as §2, §3

[8] = from CNCC(=O)N1C[C@@H](NC(=O)OC(C)(C)C)C[C@H]1COc1cncc(C(=O)N(C)C[C@H](NC(=O)OCc2ccccc2)C(=O)O)c1; amide bond; T3P; CH2Cl2; 9.75 mM
[9] = 10 μM compound, 1 mg/ml microsomal protein, sampling up to 60 min

T1 sequence (P41595 whole entry): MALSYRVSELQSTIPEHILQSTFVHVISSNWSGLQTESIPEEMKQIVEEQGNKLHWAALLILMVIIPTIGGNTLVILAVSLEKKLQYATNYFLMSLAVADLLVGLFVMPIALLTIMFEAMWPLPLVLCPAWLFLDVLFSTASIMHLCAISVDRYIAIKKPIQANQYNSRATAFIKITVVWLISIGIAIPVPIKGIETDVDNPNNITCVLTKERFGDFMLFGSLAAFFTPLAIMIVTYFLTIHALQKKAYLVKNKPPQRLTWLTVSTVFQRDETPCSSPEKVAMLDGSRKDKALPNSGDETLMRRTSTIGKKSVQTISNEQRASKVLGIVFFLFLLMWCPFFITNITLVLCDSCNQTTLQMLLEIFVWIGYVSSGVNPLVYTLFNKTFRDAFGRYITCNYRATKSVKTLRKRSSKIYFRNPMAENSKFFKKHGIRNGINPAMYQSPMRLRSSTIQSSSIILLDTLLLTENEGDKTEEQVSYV

SMILES	Metabolic Stability 60 min hum [2] [%]	Metabolic Stability 60 min mouse [3] [%]	Metabolic Stability T ½ [min] hum [2, 9] [min]	Metabolic Stability T ½ [min] mouse [3, 9] [min]	Plasma Stability 240 min hum [6] [%]	Plasma Stability 240 min mouse [7] [%]	5-HT2B receptor agonist activity [% activation at 12.5 μM] [1] [%]	Plasma Stability 240 min hum [4] [%]	Plasma Stability 240 min mouse [5] [%]	ring closure, yield of all isomers [8] [%]
CC(=O)N[C@H]1C[C@H]2COc3ccc(F)cc3C(=O)N(C)[C@H](C(=O)NCCc3c[nH]c4ccccc34)CCC(=O)N(C)CC(=O)N2C1 [Ex. 9, (2S,11S,19aS)-2-(acetylamino)-15-fluoro-N-[2-(1H-indol-3-yl)ethyl]-7,12-dimethyl-5,8,13-trioxo-2,3,6,7,8,9,10,11,12,13,19,19a-dodecahydro-1H,5H-pyrrolo[2,1-c][1,4,7,12] benzoxatriazacyclopentadecine-11-carboxamide]	20	80	–	–	–	–	48	99	93	–
CN(C)CC(=O)N[C@H]1C[C@H]2COc3ccc(F)cc3C(=O)N(C)[C@H](C(=O)NCCc3c[nH]c4ccccc34)CCC(=O)N(C)CC(=O)N2C1 [Ex. 16, (2S,11S,19aS)-2-{[2-(dimethylamino)acetyl]amino}-15-fluoro-N-[2-(1H-indol-3-yl)ethyl]-7,12-dimethyl-5,8,13-trioxo-2,3,6,7,8,9,10,11,12,13,19,19a-dodecahydro-1H,5H-pyrrolo [2,1-c][1,4,7,12]benzoxatriazacyclopentadecine-11-carboxamide]	31	79	–	–	–	–	45	95	97	–
CCCCC(=O)N[C@H]1C[C@H]2COc3ccc(F)cc3C(=O)N(C)[C@@H](C(=O)NCc3ccc4ccccc4c3)CCC(=O)N(C)CC(=O)N2C1 [Ex. 103, (2S,115,19aS)-15-fluoro-7,12-dimethyl-N-(2-naphthylmethyl)-5,8,13-trioxo-2-(pentanoylamino)-2,3,6,7,8,9,10,11,12,13,19,19a-dodecahydro-1H,5H-pyrrolo[2,1-c][1,4,7,12] benzoxatriazacyclopentadecine-11-carboxamide]	22	25	35	36	97	75	–	–	–	–
CN1C[C@H](NC(=O)OCc2ccccc2)C(=O)N(C)CC(=O)N2C[C@@H](NC(=O)OC(C)(C)C)C[C@H]2COc2cncc(c2)C1=O [Ex. 272, benzyl N-[(4S,6S,13S)-6-[(tert-butoxycarbonyl)amino]-11,15-dimethyl-9,12,16-trioxo-2-oxa-8,11,15,19-tetraazatricyclo [15.3.1.0^4,8]henicosa-1(21),17,19-trien-13-yl]carbamate]	–	–	–	–	–	–	–	95	92	38

Second part, led by results:

Metabolic Stability 60 min hum [2] [%]	Metabolic Stability 60 min mouse [3] [%]	Metabolic Stability T ½ [min] hum [2, 9] [min]	Metabolic Stability T ½ [min] mouse [3, 9] [min]	Plasma Stability 240 min hum [6] [%]	Plasma Stability 240 min mouse [7] [%]	SMILES	5-HT2B receptor agonist activity [% activation at 12.5 μM] [1] [%]	Plasma Stability 240 min hum [4] [%]	Plasma Stability 240 min mouse [5] [%]	ring closure, yield of all isomers [8] [%]
7	33	–	–	–	–	CN1CC(=O)N2C[C@@H](NC(=O)Cc3c[nH]c4ccccc34)C[C@H]2COc2ccc(F)cc2C(=O)N(C)[C@H](C(=O)NCCc2c[nH]c3ccccc23)CCC1=O [Ex. 12, (2S,11S,19aS)-15-fluoro-2-{[2-(1H-indol-3-yl)acetyl]amino}-N-[2-(1H-indol-3-yl)ethyl]-7,12-dimethyl-5,8,13-trioxo-2,3,6,7,8,9,10,11,12,13,19,19a-dodecahydro-1H,5H-pyrrolo [2,1-c][1,4,7,12]benzoxatriazacyclopentadecine-11-carboxamide]	36	99	100	–
2	55	–	–	–	–	CN1CC(=O)N2C[C@@H](NC(=O)OC(C)(C)C)C[C@H]2COc2ccc(F)cc2C(=O)N(C)[C@H](C(=O)NCCc2c[nH]c3ccccc23)CCC1=O [Ex. 30, tert-butyl N-[(2S,11S,19aS)-15-fluoro-11-({[2-(1H-indol-3-yl)ethyl]amino}carbonyl)-7,12-dimethyl-5,8,13-trioxo-2,3,6,7,8,9,10,11,12,13,19,19a-dodecahydro-1H,5H-pyrrolo[2,1-c][1,4,7,12]benzoxatriazacyclopentadecin-2-yl]carbamate]	48	85	100	–
